Data taken from patent publication US20230277570A1, “ENPP1 Inhibitors and Their Use for the Treatment of Cancer” (The Board of Trustees of the Leland Stanford Junior …, priority 2017, published 2023).

Target: T1, purified recombinant mouse ENPP1 (Mus musculus (Mouse), UniProt P06802)
Assay: ENPP1 activity assay using thymidine monophosphate paranitrophenol (TMP-pNP) as a substrate
Type: biochemical
Details: TMP-pNP 2 μM, mouse ENPP1 0.5 nM, pH 7.5
Procedure: Selected compounds of Table 1, Table 2 and other derivatives were prepared and assessed in an ENPP1 activity assay using thymidine monophosphate paranitrophenol (TMP-pNP) as a substrate. Enzyme reactions were prepared with TMP-pNP (2 μM), 5-fold dilutions of ENPP1 inhibitor, and purified recombinant mouse ENPP1 (0.5 nM) in 100 mM Tris, 150 mM NaCl, 2 mM CaCl2, 200 μM ZnCl2, pH 7.5 at room temperature. Reaction progress was monitored by measuring absorbance at 400 nm of paranitrophenolate produced by the reaction for 20 minutes.

T1 sequence (P06802 whole entry): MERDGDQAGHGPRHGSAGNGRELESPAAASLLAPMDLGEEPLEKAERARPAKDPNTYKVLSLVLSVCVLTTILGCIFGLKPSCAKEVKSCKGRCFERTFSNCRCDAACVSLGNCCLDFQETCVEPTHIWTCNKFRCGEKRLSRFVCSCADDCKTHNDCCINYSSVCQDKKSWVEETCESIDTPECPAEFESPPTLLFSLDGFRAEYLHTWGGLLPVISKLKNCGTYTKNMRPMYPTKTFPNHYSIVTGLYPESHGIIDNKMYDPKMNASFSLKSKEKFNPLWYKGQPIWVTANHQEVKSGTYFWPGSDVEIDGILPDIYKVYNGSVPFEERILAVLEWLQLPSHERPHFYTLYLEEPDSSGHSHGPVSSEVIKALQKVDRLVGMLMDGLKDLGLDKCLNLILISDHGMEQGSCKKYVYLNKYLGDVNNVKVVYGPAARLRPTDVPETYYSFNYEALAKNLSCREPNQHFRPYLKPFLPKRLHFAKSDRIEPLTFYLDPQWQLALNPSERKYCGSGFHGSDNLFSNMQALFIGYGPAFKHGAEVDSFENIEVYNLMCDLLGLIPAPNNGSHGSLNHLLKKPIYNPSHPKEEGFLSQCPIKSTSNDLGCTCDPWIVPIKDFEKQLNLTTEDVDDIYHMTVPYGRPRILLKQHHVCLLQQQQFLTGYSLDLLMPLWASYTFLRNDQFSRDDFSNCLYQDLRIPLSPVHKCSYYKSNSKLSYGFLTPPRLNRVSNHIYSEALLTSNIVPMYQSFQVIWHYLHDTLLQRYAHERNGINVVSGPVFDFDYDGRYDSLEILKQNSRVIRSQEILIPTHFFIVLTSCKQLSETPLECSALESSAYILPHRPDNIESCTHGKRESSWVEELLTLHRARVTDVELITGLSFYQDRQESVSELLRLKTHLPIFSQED

Row | IC50 | Compound
1 | < 0.5 µM | COc1cc(OC)c2ncnc(N3CCC(CCP(=O)(O)O)CC3)c2c1 [Compound 7]
2 | < 0.5 µM | COc1ccc2c(N3CCC(CCP(=O)(O)O)CC3)ncnc2c1 [Compound 10]
3 | > 10 µM | CC(C)Oc1ccc2c(N3CCC(CCP(=O)(O)O)CC3)ncnc2c1 [Compound 11]
4 | < 0.5 µM | COc1ccc2c(N3CCC(CCP(=O)(O)O)CC3)nc(C)nc2c1 [Compound 12]
5 | 0.5 to 5 µM | COc1ccc(OC)c2c(N3CCC(CCP(=O)(O)O)CC3)ncnc12 [Compound 16]
6 | < 0.5 µM | COc1ccc2ncnc(N3CCC(CCP(=O)(O)O)CC3)c2c1 [Compound 19]
7 | < 0.5 µM | COc1ccc2c(N3CCC(CCP(=O)(O)O)CC3)ncnc2c1OC [Compound 22]
8 | < 0.5 µM | Nc1ccc2c(N3CCC(CCP(=O)(O)O)CC3)ncnc2c1 [Compound 30]
9 | < 0.5 µM | COc1cc2ccnc(N3CCC(CCP(=O)(O)O)CC3)c2cc1OC [Compound 38]
10 | < 0.5 µM | COc1cc2ncnc(N3CCC(COP(=O)(O)O)CC3)c2cc1OC [Compound 60]
11 | 0.5 to 5 µM | COc1cc2ncnc(N3CCC(CC(=O)NO)CC3)c2cc1OC [Compound 61]
12 | < 0.5 µM | COc1cc2nccc(N3CCC(CCP(=O)(O)O)CC3)c2cc1OC [Compound 71]
13 | < 0.5 µM | COc1cc2ncnc([C@H]3CC[C@@H](CCP(=O)(O)O)CC3)c2cc1OC [Compound 81, (2-((1,4-cis)-4-(6,7-dimethoxyquinazolin-4-yl)cyclohexyl)ethyl)phosphonic acid]
14 | < 0.5 µM | COc1cc2ncnc([C@H]3CC[C@H](CCP(=O)(O)O)CC3)c2cc1OC [Compound 82, (2-((1,4-trans)-4-(6,7-dimethoxyquinazolin-4-yl)cyclohexyl)ethyl)phosphonic acid]
15 | < 0.5 µM | O=P(O)(O)CCC1CCN(c2ncnc3cc(Cl)ccc23)CC1 [Compound 84]
16 | < 0.5 µM | COc1cc2ncnc(N3CCC(CCB(O)O)CC3)c2cc1OC [Compound 87]
17 | < 0.5 µM | COc1cc2ncnc(N3CCC(CP(=O)(O)O)CC3)c2cc1OC [Compound 88, ((1-(6,7-dimethoxyquinazolin-4-yl)piperidin-4-yl)methyl)phosphonic acid]

The remaining lines, values behind:

Row | Compound | IC50
18 | O=P(O)(O)CCC1CCN(c2ncnc3cc(O)ccc23)CC1 [Compound 5] | < 0.5 µM
19 | O=P(O)(O)CCC1CCN(c2ncnc3cc4c(cc23)OCCO4)CC1 [Compound 13] | 0.5 to 5 µM
20 | COc1ccc2c(N3CCC(CCP(=O)(O)O)CC3)nc(/C=C/c3cccnc3)nc2c1 [Compound 18] | < 0.5 µM
21 | O=P(O)(O)CCC1CCN(c2ncnc3ccc(O)cc23)CC1 [Compound 23] | 0.5 to 5 µM
22 | O=P(O)(O)CCC1CCN(c2ncnc3ccccc23)CC1 [Compound 25] | < 0.5 µM
23 | COc1ccc2c(N3CCN(CCP(=O)(O)O)CC3)ncnc2c1 [Compound 42] | > 10 µM
24 | COc1cc2ncnc(N3CCC(COP(O)(O)=S)CC3)c2cc1OC [Compound 67] | < 0.5 µM
25 | O=P(O)(O)CCC1CCN(c2ncnc3cccc(F)c23)CC1 [Compound 70] | < 0.5 µM
26 | CNC(=O)NCC1CCN(c2ncnc3cc(OC)c(OC)cc23)CC1 [Compound 73] | > 10 µM
27 | COc1cc2ncnc(N3CCN(C(=O)CP(=O)(O)O)CC3)c2cc1OC [Compound 75] | < 0.5 µM
28 | COc1cccc2c(N3CCC(CCP(=O)(O)O)CC3)ncnc12 [Compound 76] | < 0.5 µM
29 | COc1cc2ncnc(N3CCC(CCP(O)(O)=S)CC3)c2cc1OC [Compound 83, (2-(1-(6,7-dimethoxyquinazolin-4-yl)piperidin-4-yl)ethyl)phosphonothioic O,O-acid] | < 0.5 µM
30 | COc1cccc2c(N3CCC(COP(=O)(O)O)CC3)ncnc12 [Compound 86] | < 0.5 µM
31 | Cc1nccn1-c1cc(N2CCC(CCP(=O)(O)O)CC2)ncn1 [Compound 93] | < 0.5 µM
32 | Cc1nccn1-c1cc(N2CCN(CCP(=O)(O)O)CC2)ncn1 [Compound 100] | < 0.5 µM

Target: T1, purified recombinant mouse ENPP1
Assay: ENPP1 enzyme activity assay using 32P cGAMP as a substrate (TLC)
Type: biochemical
Details: 32P-cGAMP 5 μM, mouse ENPP1 20 nM, pH 7.5, 5 hours

Row | IC50 | Compound
33 | < 0.5 µM | COc1ccc2c(N3CCC(CCP(=O)(O)O)CC3)ncnc2c1 [Compound 10]
34 | < 0.5 µM | COc1ccc2c(N3CCC(CCP(=O)(O)O)CC3)nc(/C=C/c3cccnc3)nc2c1 [Compound 18]
35 | 0.5 to 5 µM | COc1cc2ncnc(N3CCN(C(=O)CP(=O)(O)O)CC3)c2cc1OC [Compound 75]

Row | Compound | IC50
36 | COc1cccc2c(N3CCC(CCP(=O)(O)O)CC3)ncnc12 [Compound 76] | < 0.5 µM

Test system: 4T1-luciferase tumor
Assay: 4T1 tumor model: tumor volume and survival with IR, cGAMP, anti-CTLA-4
Type: in vivo, Balb/c mice
Details: 20 Gy IR, then single agent intratumorally on day 2, 4 and 7 (100 μL of 100 μM compound 1 or 10 μg cGAMP)

Row | Compound | tumor shrinkage effect over IR treatment
37 | Nc1nc2c(ncn2[C@@H]2O[C@@H]3COP(=O)(O)O[C@H]4[C@@H](O)[C@H](n5cnc6c(N)ncnc65)O[C@@H]4COP(=O)(O)O[C@@H]2[C@@H]3O)c(=O)[nH]1 [cGAMP, cyclic guanosine monophosphate-adenosine monophosphate] | no effect over IR treatment
